From patent US20220062240A1, “METHODS OF TREATING CANCER USING A CLK INHIBITOR” (BioSplice Therapeutics, Inc., priority 2018, published 2022)
Read-outs that look alike come from different tables or passages of the source.

Assays:
[1] = system: haematopoietic & lymphoid tumors (13 cell lines); assay: CellTiter-Glo Viability Assay, haematopoietic & lymphoid tumors; type: cell-based; conditions: Homo sapiens, inhibition of cancer cell proliferation
CLK2 = target: T1, CLK2 (Homo sapiens, UniProt P49760); assay: CLK2 kinase activity assay (Z-lyte, Ser/Thr 6 peptide); type: biochemical; conditions: recombinant CLK2 kinase, ATP 60 μM; read-out: EC50
T1 construct: purchased Thermo Fisher (Life Technologies), Z'-LYTE Kinase Assay Kits
Experimental: All reactions were performed in duplicate.

MDA-MB-231-Luc = assay: CellTiter-Glo Viability Assay, breast cancer; type: cell-based; conditions: Homo sapiens, 96 h; MDA-MB-231-Luc, breast cancer, four days; read-out: EC50
MCF7 = assay: CellTiter-Glo Viability Assay, breast cancer; type: cell-based; conditions: Homo sapiens, 96 h; MCF7, breast cancer, four days; read-out: EC50
CAMA1 = assay: CellTiter-Glo Viability Assay, breast cancer; type: cell-based; conditions: Homo sapiens, CAMA-1, 96 h; CAMA1, breast cancer, four days; read-out: EC50
HCC1599 = assay: CellTiter-Glo Viability Assay, breast cancer; type: cell-based; conditions: Homo sapiens, 96 h; HCC1599, breast cancer, four days; read-out: EC50
BT-549 = assay: CellTiter-Glo Viability Assay, breast cancer; type: cell-based; conditions: Homo sapiens, 96 h; BT-549, breast cancer, four days; read-out: EC50
ZR-75-1 = assay: CellTiter-Glo Viability Assay, breast cancer; type: cell-based; conditions: Homo sapiens, 96 h; ZR-75-1, breast cancer, four days; read-out: EC50
DU4475 = assay: CellTiter-Glo Viability Assay, breast cancer; type: cell-based; conditions: Homo sapiens, DU-4475, 96 h; DU4475, breast cancer, four days; read-out: EC50
T47D = assay: CellTiter-Glo Viability Assay, breast cancer; type: cell-based; conditions: Homo sapiens, 96 h, breast cancer, four days, read-out: EC50
[2] = system: ovarian cancer (4 cell lines); assay: CellTiter-Glo Viability Assay, ovarian cancer; type: cell-based; conditions: Homo sapiens, inhibition of cancer cell proliferation
CLK3 = CLK3 (Homo sapiens, UniProt P49761); assay: CLK3 kinase activity assay (Z-lyte, Ser/Thr 18 peptide)
Experimental: Each compound was dissolved in DMSO as a 10 mM stock and used to prepare compound source plates.
This is a non-radioactive assay using fluorescence resonance energy transfer (FRET) between coumarin and fluorescein to detect kinase activity which is represented as a ratio of coumarin emission/fluorescein emission.
All reactions were performed in duplicate. Unphosphorylated (“0% Control”) and phosphorylated (“100% control”) forms of Ser/Thr 18 served as control reactions. Additionally, an 11-point dose-response curve of Staurosporine (1 uM top) was run to serve as a positive compound control.
After incubation, Development Reagent A was diluted in Development Buffer then added to the reaction and allowed to further incubate for one hour at room temperature.
Dose-response curves were generated and inhibitory concentration (IC50) values were calculated using non-linear regression curve fit in the Dotmatics' Studies Software (Bishops Stortford, UK).
Compounds were acoustically transferred on 1536-well plates (Echo 550, LabCyte) instrument. Kinase, peptide, and ATP reagents from the Z′-LYTE Kinase Assay Kits (Thermo Fisher) were dispensed onto the compound plates using an EL406 liquid dispenser (BioTek). Plates were incubated in the dark at room temperature for 1 hr. Development reagent was added to the plates and then incubated in the dark at room temperature for 1 hr. Fluorescence signal form the plate was then read using an EnVision Multilabel Plate Reader (Perkin Elmer).

[3] = system: lung cancer (4 cell lines); assay: CellTiter-Glo Viability Assay, lung cancer; type: cell-based; conditions: Homo sapiens, inhibition of cancer cell proliferation
[4] = system: prostate cancer (5 cell lines); assay: CellTiter-Glo Viability Assay, prostate cancer; type: cell-based; conditions: Homo sapiens
[5] = system: liver cancer (3 cell lines); assay: CellTiter-Glo Viability Assay, liver cancer; type: cell-based; conditions: Homo sapiens, inhibition of cancer cell proliferation
[6] = system: colorectal cancer (6 cell lines); assay: CellTiter-Glo Viability Assay, colorectal cancer; type: cell-based; conditions: Homo sapiens, inhibition of cancer cell proliferation
[7] = system: pancreatic cancer (8 cell lines); assay: CellTiter-Glo Viability Assay, pancreatic cancer; type: cell-based; conditions: Homo sapiens, inhibition of cancer cell proliferation
all 50 cell lines = assay: CellTiter-Glo Viability Assay, average across all cell lines; type: cell-based; conditions: Homo sapiens; across all 50 cell lines; read-out: average EC50 for inhibition of cancer cell proliferation
Method in brief: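 4-day proliferation, 37° C/5% CO2; 300-3,000 cells/well; compound in duplicate vs DMSO controls. Panel: breast, colorectal, heme/lymphoid, liver, lung, ovarian, pancreatic, prostate lines. Read-out: CellTiter-Glo ATP luminescence, EC50 from dose-response.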

[8] = PA-1, PA1 cell line, read-out: Ovarian cancer, EC50 (μM) PA1
[9] = TOV112D, TOV-112D cell line, read-out: Ovarian cancer, EC50 (μM) TOV-112D
[10] = OV-90 cell line, read-out: Ovarian cancer, EC50 (μM) OV-90
[11] = OVCAR-3 cell line, read-out: Ovarian cancer, EC50 (μM) OVCAR-3
[12] = A-427, A427 cell line, read-out: Lung cancer, EC50 (μM) A427
[13] = HCC78, HCC-78 cell line, read-out: Lung cancer, EC50 (μM) HCC-78
[14] = NCI-H460 cell line, read-out: Lung cancer, EC50 (μM) NCI-H460
[15] = NCI-H522 cell line, read-out: Lung cancer, EC50 (μM) NCI-H522
[16] = DU-145, read-out: Prostate cancer EC50 Du-145
[17] = PC-3, PC3 cell line, inhibition of cancer cell proliferation, read-out: Prostate cancer EC50 PC3
[18] = 22Rv1 cell line, inhibition of cancer cell proliferation, read-out: Prostate cancer EC50 22Rv1
[19] = LNCap clone FGC cell line, inhibition of cancer cell proliferation, read-out: Prostate cancer EC50 LNCap clone FGC
[20] = VCaP (Sigma) cell line, inhibition of cancer cell proliferation, read-out: Prostate cancer EC50 VCaP (Sigma)
[21] = SNU-398, SNU398 cell line, read-out: Liver cancer, EC50 SNU398
[22] = HEPG2 cell line, read-out: Liver cancer, EC50 HEPG2
[23] = PLC/PRF/5 cell line, read-out: Liver cancer, EC50 PLC/PRF/5
[24] = HCT-116, HCT116 cell line, read-out: Colorectal cancer, EC50 (μM) HCT116
[25] = HT-29, HT29 cell line, read-out: Colorectal cancer, EC50 (μM) HT29
[26] = SW-620, SW620 cell line, read-out: Colorectal cancer, EC50 (μM) SW620
[27] = DLD-1 cell line, read-out: Colorectal cancer, EC50 (μM) DLD-1
[28] = SW48 cell line, read-out: Colorectal cancer, EC50 (μM) SW48
[29] = SW480 cell line, read-out: Colorectal cancer, EC50 (μM) SW480
[30] = BXPC-3, BxPC3 cell line, read-out: Pancreatic cancer, EC50 BxPC3
[31] = CAPAN-1, Capan1 cell line, read-out: Pancreatic cancer, EC50 Capan1
[32] = Capan-2, Capan2 cell line, read-out: Pancreatic cancer, EC50 Capan2
[33] = MIA PaCa-2 cell line, read-out: Pancreatic cancer, EC50 MIA PaCa-2
[34] = PANC 05.04 cell line, read-out: Pancreatic cancer, EC50 PANC 05.04
[35] = PANC-1 cell line, read-out: Pancreatic cancer, EC50 PANC-1
[36] = UPAFII cell line, read-out: Pancreatic cancer, EC50 UPAFII

T1 sequence (P49760 whole entry): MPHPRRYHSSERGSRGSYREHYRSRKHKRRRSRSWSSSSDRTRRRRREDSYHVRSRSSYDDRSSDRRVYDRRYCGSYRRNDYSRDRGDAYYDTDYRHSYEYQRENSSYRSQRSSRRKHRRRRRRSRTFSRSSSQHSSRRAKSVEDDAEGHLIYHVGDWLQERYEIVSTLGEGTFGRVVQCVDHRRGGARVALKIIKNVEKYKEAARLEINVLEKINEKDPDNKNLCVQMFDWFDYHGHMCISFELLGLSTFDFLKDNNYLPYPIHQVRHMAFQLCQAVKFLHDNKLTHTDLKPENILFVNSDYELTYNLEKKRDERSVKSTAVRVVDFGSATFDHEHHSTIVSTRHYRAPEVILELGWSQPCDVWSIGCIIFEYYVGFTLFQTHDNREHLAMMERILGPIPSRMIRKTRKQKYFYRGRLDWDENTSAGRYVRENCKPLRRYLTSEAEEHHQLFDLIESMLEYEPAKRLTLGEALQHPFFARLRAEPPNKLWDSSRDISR
Chain of CLK3 (P49761 whole entry): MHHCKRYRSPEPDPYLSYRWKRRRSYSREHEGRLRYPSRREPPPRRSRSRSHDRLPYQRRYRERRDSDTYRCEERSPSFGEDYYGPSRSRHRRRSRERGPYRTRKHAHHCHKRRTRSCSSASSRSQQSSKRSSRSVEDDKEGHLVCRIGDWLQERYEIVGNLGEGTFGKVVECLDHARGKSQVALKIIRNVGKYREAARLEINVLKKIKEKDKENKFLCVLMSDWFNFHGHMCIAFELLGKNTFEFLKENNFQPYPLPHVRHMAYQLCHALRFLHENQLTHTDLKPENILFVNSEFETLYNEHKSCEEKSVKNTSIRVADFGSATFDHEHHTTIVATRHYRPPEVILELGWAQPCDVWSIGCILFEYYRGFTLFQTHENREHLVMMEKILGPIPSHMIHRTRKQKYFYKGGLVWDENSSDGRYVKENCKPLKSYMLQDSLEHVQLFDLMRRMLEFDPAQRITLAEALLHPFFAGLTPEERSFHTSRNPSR

Structure (SMILES): O=C(Nc1cncc(-c2ccc3[nH]nc(-c4cc5cnccc5[nH]4)c3c2)c1)C1CCCCC1 [Compound 47]
- EC50 ([1]; DND41, DND-41 cell line, read-out: Haematopoietic & Lymphoid tumors, EC50 (μM) DND-41): 0.129 µM
- EC50 ([1]; MV4-11, MV-4-11 cell line, read-out: Haematopoietic & Lymphoid tumors, EC50 (μM) MV-4-11): 0.07 µM
- EC50 ([1]; Rec1, REC-1 cell line, read-out: Haematopoietic & Lymphoid tumors, EC50 (μM) REC-1): 0.453 µM
- EC50 ([1]; SU-DHL-4, SUDHL4 cell line, read-out: Haematopoietic & Lymphoid tumors, EC50 (μM) SUDHL4): 0.14 µM
- EC50 ([1]; HL-60 cell line, read-out: Haematopoietic & Lymphoid tumors, EC50 (μM) HL-60): 0.769 µM
- EC50 ([1]; JM1 cell line, read-out: Haematopoietic & Lymphoid tumors, EC50 (μM) JM1): 0.075 µM
- EC50 ([1]; JURKAT, Clone E6-1 cell line, read-out: Haematopoietic & Lymphoid tumors, EC50 (μM) JURKAT, Clone E6-1): 0.466 µM
- EC50 ([1]; JeKo-1 cell line, read-out: Haematopoietic & Lymphoid tumors, EC50 (μM) JeKo-1): 0.048 µM
- EC50 ([1]; KASUMI-1 cell line, read-out: Haematopoietic & Lymphoid tumors, EC50 (μM) KASUMI-1): 0.25 µM
- EC50 ([1]; Loucy cell line, read-out: Haematopoietic & Lymphoid tumors, EC50 (μM) Loucy): 0.136 µM
- EC50 ([1]; MOLT-4 cell line, read-out: Haematopoietic & Lymphoid tumors, EC50 (μM) MOLT-4): 0.404 µM
- EC50 ([1]; TF-1 cell line, read-out: Haematopoietic & Lymphoid tumors, EC50 (μM) TF-1): 0.861 µM
- EC50 ([1]; TOLEDO cell line, read-out: Haematopoietic & Lymphoid tumors, EC50 (μM) TOLEDO): 0.077 µM
- EC50 (CLK2): 1.3 nM
- EC50 (MDA-MB-231-Luc): 407 nM
- EC50 (MCF7): 1960 nM
- EC50 (CAMA1): 210 nM
- EC50 (HCC1599): 75 nM
- EC50 (BT-549): 409 nM
- EC50 (ZR-75-1): 358 nM
- EC50 (DU4475): 77 nM
- EC50 (T47D): 468 nM
- EC50 [2, 8]: 0.403 µM
- EC50 [2, 9]: 0.192 µM
- EC50 [2, 10]: 0.567 µM
- EC50 [2, 11]: 0.179 µM
- EC50 (CLK3): 17.6 nM
- EC50 [3, 12]: 0.14 µM
- EC50 [3, 13]: 0.666 µM
- EC50 [3, 14]: 2.64 µM
- EC50 [3, 15]: 0.157 µM
- EC50 [4, 16]: 459 nM
- EC50 [4, 17]: 322 nM
- EC50 [4, 18]: 283 nM
- EC50 [4, 19]: 965 nM
- EC50 [4, 20]: 574 nM
- EC50 [5, 21]: 57 nM
- EC50 [5, 22]: 371 nM
- EC50 [5, 23]: 1820 nM
- EC50 [6, 24]: 0.402 µM
- EC50 [6, 25]: 1.43 µM
- EC50 [6, 26]: 0.164 µM
- EC50 [6, 27]: 0.658 µM
- EC50 [6, 28]: 0.164 µM
- EC50 [6, 29]: 0.22 µM
- EC50 [7, 30]: 770 nM
- EC50 [7, 31]: 761 nM
- EC50 [7, 32]: 540 nM
- EC50 [7, 33]: 112 nM
- EC50 [7, 34]: 791 nM
- EC50 [7, 35]: 1780 nM
- EC50 [7, 36]: 357 nM
- EC50 (all 50 cell lines): 516 nM

Structure (SMILES): CN(C)CCOc1cc(C(=O)Nc2cc3cc(-c4cnn(C)c4)ccc3cn2)ccn1 [Compound 73]
- EC50 (CLK2): 1.9 nM
- EC50 (MDA-MB-231-Luc): 374 nM
- EC50 (MCF7): 914 nM
- EC50 (CAMA1): 379 nM
- EC50 (HCC1599): 73 nM
- EC50 (BT-549): 272 nM
- EC50 (ZR-75-1): 467 nM
- EC50 (DU4475): 163 nM
- EC50 (T47D): 534 nM
- EC50 [2, 8]: 0.325 µM
- EC50 [2, 9]: 0.165 µM
- EC50 [2, 10]: 0.486 µM
- EC50 [2, 11]: 0.123 µM
- EC50 (CLK3): 31.2 nM
- EC50 [3, 12]: 0.29 µM
- EC50 [3, 13]: 0.504 µM
- EC50 [3, 14]: 0.396 µM
- EC50 [3, 15]: 0.144 µM
- EC50 [4, 16]: 308 nM
- EC50 [4, 17]: 302 nM
- EC50 [4, 18]: 194 nM
- EC50 [4, 19]: 526 nM
- EC50 [4, 20]: 430 nM
- EC50 [5, 21]: 88 nM
- EC50 [5, 22]: 383 nM
- EC50 [5, 23]: 674 nM
- EC50 [6, 24]: 0.155 µM
- EC50 [6, 25]: 0.385 µM
- EC50 [6, 26]: 0.13 µM
- EC50 [6, 27]: 0.241 µM
- EC50 [6, 28]: 0.105 µM
- EC50 [6, 29]: 0.16 µM
- EC50 [7, 30]: 451 nM
- EC50 [7, 31]: 249 nM
- EC50 [7, 32]: 555 nM
- EC50 [7, 33]: 141 nM
- EC50 [7, 34]: 232 nM
- EC50 [7, 35]: 401 nM
- EC50 [7, 36]: 203 nM
- EC50 (all 50 cell lines): 306 nM
